The results in this text go back to patent US20220411372A1, “SMALL-MOLECULE INHIBITORS FOR THE B-CATENIN/B-CELL LYMPHOMA 9 PROTEIN-PROTEIN INTERACTION” (H. Lee Moffitt Cancer Center and Research Institute, Inc., priority 2019, published 2022).

In this assay the target is T1, β-catenin/BCL9 PPI (Homo sapiens, UniProt P35222).
T1 construct: Full-length β-catenin (residues 1-781) were cloned into a pET-28b vector; made in house; host or cells: E. coli BL21 DE3 (β-catenin); BCL9 peptide synthesized by InnoPep Inc
T1 sequence (P35222 1-781): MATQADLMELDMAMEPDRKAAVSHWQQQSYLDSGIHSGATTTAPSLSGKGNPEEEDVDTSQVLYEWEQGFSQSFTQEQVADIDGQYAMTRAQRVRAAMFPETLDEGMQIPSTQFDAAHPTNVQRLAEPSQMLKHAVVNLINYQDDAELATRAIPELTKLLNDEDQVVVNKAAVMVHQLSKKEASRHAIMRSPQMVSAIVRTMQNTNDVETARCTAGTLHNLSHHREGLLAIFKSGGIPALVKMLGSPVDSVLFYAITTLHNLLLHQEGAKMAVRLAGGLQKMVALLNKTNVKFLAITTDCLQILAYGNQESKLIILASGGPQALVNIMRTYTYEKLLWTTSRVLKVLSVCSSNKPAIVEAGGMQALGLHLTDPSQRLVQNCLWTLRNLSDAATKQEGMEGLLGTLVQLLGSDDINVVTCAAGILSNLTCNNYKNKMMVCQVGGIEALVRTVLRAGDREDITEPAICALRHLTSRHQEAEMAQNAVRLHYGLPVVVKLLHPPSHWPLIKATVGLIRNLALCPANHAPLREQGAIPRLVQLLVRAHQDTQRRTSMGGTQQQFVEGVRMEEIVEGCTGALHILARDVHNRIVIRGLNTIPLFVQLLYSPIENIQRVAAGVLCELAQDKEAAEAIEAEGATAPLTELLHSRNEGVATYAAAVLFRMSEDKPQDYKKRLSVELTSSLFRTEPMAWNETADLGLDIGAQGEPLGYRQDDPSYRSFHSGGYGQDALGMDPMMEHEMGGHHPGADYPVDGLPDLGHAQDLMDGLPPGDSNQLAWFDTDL
The assay can be described thus: AlphaScreen competitive inhibition assay of the β-catenin/BCL9 PPI. In kind it is binding. On the procedure: AlphaScreen Assays of β-Catenin and BCL9 Interaction. Experiments were performed in white opaque 384-well plates from PerkinElmer (Waltham, Mass.), and the samples were read on a Synergy 2 plate reader (Biotek, Winooski, Vt.) with excitation at 680 nm and emission at 570 nm. The standard AlphaScreen protocol was used with a sensitivity setting of 200. All dilutions were made in 1× assay buffer containing 25 mM Hepes (pH 7.4), 100 mM NaCl, 0.01% Triton X-100 and 0.1% BSA to minimize nonspecific interactions.
For the β-catenin/BCL9 assay, 5 nM biotinylated BCL9 and 40 nM His6-tagged β-catenin were incubated in assay buffer at 4° C. for 30 min. For the β-catenin/E-cadherin assay, 10 nM biotinylated human E-cadherin, and 40 nM His6-tagged human β-catenin were added and incubated in assay buffer at 4° C. for 30 min. Different concentrations of the tested inhibitor were added and incubated in 20 μL assay buffer at 4° C. for another 1 h. All of the assay plates were covered and gently mixed on an orbital shaker. The donor and acceptor beads were then added to the plates to a final concentration of 10 μg/mL in […]. The mixture was incubated for 1 h at 4° C. before detection. The IC50 value was determined by nonlinear least-square analysis of GraphPad Prism 5.0. […] All of the experiments were performed in triplicate and carried out in the presence of 1% DMSO for small-molecule inhibitors. Each compound was assayed at least by two independent experiments. The results were expressed as mean±standard deviation. The inhibitor selectivity for β-catenin/BCL9 over β-catenin/E-canderin interactions was defined as the ratio of the respective Ki value of β-catenin/E-cadherin interactions over that of β-catenin/BCL9 interactions.
Background: Bead proximity is the source of the signal in Alpha formats.

[1] abbreviates: Table 2, inhibitors 15-26, read-out: Ki.
The mark [2] stands for this setting: Table 5, inhibitors 54-62, read-out: Ki.
[3] abbreviates: Table 10, inhibitors 99-106, racemic, read-out: Ki ± SD.
Where [4] appears, read: Table 9, inhibitors 93-98, racemic, read-out: Ki.
[5] abbreviates: Table 1, inhibitors 1-14, read-out: Ki.
[6] abbreviates: Table 8, inhibitors 82-92, read-out: Ki.
Where [7] appears, read: Table 3, inhibitors 27-43, read-out: Ki.

Like-named read-outs stand apart in the source and are kept apart here. Some results are limits rather than exact numbers.

By Ki is commonly meant a measure of affinity in units of concentration, obtained from inhibition or displacement. Consider `CC(C)c1ccc(CN(C(=O)[C@@H]2CCCN(c3cccc(OC(C)(C)C(=O)N4CCNCC4)c3)C2)C(C)C)cc1` [Compound 23, (R)-4-(2-(3-(3-(isopropyl(4-isopropylbenzyl)carbamoyl)piperidin-1-yl)phenoxy)-2-methylpropanoyl)piperazin-1-ium chloride], for which the Ki under setting [1] is at most 10 µM.
On to `CC(C)(Oc1cccc(N2CCC[C@@H](C(=O)N(Cc3ccc(-c4cn[nH]c4)cc3)C3CC3)C2)c1)C(=O)N1CC2(CNC2)C1` [Compound 62, (R)-6-(2-(3-(3-((4-(1H-pyrazol-4-yl)benzyl)(cyclopropyl)carbamoyl)piperidin-1-yl)phenoxy)-2-methylpropanoyl)-2,6-diazaspiro[3.3]heptan-2-ium 2,2,2-trifluoroacetate], for which the Ki under setting [2] is under 90 µM.
As to `Cn1cc(-c2ccc(CN(C(=O)C3CCCN(c4cccc(OC(C)(C)C(=O)O)c4)C3)C3CC3)cc2)cn1` (racemic) [Compound 100, 2-(3-(3-(cyclopropyl(4-(1-methyl-1H-pyrazol-4-yl)benzyl)carbamoyl)piperidin-1-yl)phenoxy)-2-methylpropanoic acid], under setting [3], the Ki was over 90 µM.
With `CC(C)c1ccc(CNC(=O)C2CCCN(c3cccc(OC(C)(C)C(=O)O)c3)C2)cc1` (racemic) [Compound 93, 2-(3-(3-((4-isopropylbenzyl)carbamoyl)piperidin-1-yl)phenoxy)-2-methylpropanoic acid], under setting [4], the inhibition constant Ki is at most 90 µM.
Take `CC(C)c1ccc(CNC(=O)[C@@H]2CCCN(c3cccc(OC(C)(C)C(=O)O)c3)C2)cc1` [Compound 3, (R)-2-(3-(3-((4-isopropylbenzyl)carbamoyl)piperidin-1-yl)phenoxy)-2-methylpropanoic acid]: under setting [5], the inhibition constant Ki was at most 50 µM.
In the case of `O=C([C@@H]1CCCN(c2cccc(OC3(C(=O)N4CCNCC4)CCCC3)c2)C1)N(Cc1ccc(-c2cn[nH]c2)cc1)C1CC1` [Compound 83, (R)-4-(1-(3-(3-((4-(1H-pyrazol-4-yl)benzyl)(cyclopropyl)carbamoyl)piperidin-1-yl)phenoxy)cyclopentane-1-carbonyl)piperazin-1-ium chloride], the Ki under setting [6] is under 90 µM.
Still for that read-out and setting: the value for `O=C([C@@H]1CCCN(c2cccc(OC3(C(=O)N4CCNCC4)CC3)c2)C1)N(Cc1ccc(-c2cn[nH]c2)cc1)C1CC1` [Compound 82, (R)-4-(1-(3-(3-((4-(1H-pyrazol-4-yl)benzyl)(cyclopropyl)carbamoyl)piperidin-1-yl)phenoxy)cyclopropane-1-carbonyl)piperazin-1-ium chloride] was under 10 µM.
Consider `COC(=O)C(C)(C)Oc1cccc(N2CCCC(C(=O)N(Cc3ccc(-c4cccs4)cc3)C3CC3)C2)c1` (racemic) [Compound 107, methyl 2-(3-(3-(cyclopropyl(4-(thiophen-2-yl)benzyl)carbamoyl)piperidin-1-yl)phenoxy)-2-methylpropanoate], for which, where the note is “Table 11, inhibitors 107-108, racemic, read-out: Ki ± SD”, the Ki was over 90 µM.
`Cn1cc(-c2ccc(CN(C(=O)[C@@H]3CCCN(c4cccc(OC(C)(C)C(=O)N5CCNCC5)c4)C3)C3CC3)cc2)cn1` [Compound 38, (R)-4-(2-(3-(3-(cyclopropyl(4-(1-methyl-11/-pyrazol-4-yl)benzyl)carbamoyl)piperidin-1-yl)phenoxy)-2-methylpropanoyl)piperazin-1-ium chloride]: the Ki under setting [7] is at most 90 µM.
`CC(C)c1ccc(CN(C)C(=O)[C@H]2CCCN(c3cccc(OC(C)(C)C(=O)N4CCNCC4)c3)C2)cc1` [Compound 20, (S)-4-(2-(3-(3-((4-isopropylbenzyl)(methyl)carbamoyl)piperidin-1-yl)phenoxy)-2-methylpropanoyl)piperazin-1-ium chloride]: the Ki under setting [1] is at most 10 µM.
In the case of `CC(C)c1ccc(COC(=O)[C@H]2CCCN(c3cccc(OC(C)(C)C(=O)O)c3)C2)cc1` [Compound 2, (S)-2-(3-(3-(((4-isopropylbenzyl)oxy)carbonyl)piperidin-1-yl)phenoxy)-2-methylpropanoic acid], the Ki under setting [5] was over 90 µM.
As to `CC(C)(Oc1cccc(N2CCC[C@@H](C(=O)N(Cc3ccc(-c4cn[nH]c4)cc3)C3CCCC3)C2)c1)C(=O)N1CCNCC1` [Compound 50, (R)-4-(2-(3-(3-((4-(1H-pyrazol-4-yl)benzyl)(cyclopentyl)carbamoyl)piperidin-1-yl)phenoxy)-2-methylpropanoyl)piperazin-1-ium chloride], the inhibitory constant (Ki) (Table 4, right half, inhibitors 49-53, read-out: Ki ± SD) was under 10 µM.
For the compound `CC(C)(Oc1cccc(N2CCC[C@@H](C(=O)N(Cc3ccc(-c4cn[nH]c4)cc3)C3CC3)C2)c1)C(=O)N1CCCNCC1` [Compound 54, (R)-4-(2-(3-(3-((4-(1H-pyrazol-4-yl)benzyl)(cyclopropyl)carbamoyl)piperidin-1-yl)phenoxy)-2-methylpropanoyl)-1,4-diazepan-1-ium chloride], under setting [2], the inhibitory constant (Ki) is under 10 µM.
Take “(R)-2-(3-(3-(cyclopropyl(4-isopropylbenzyl)carbamoyl)piperidin-1-yl)phenoxy)-2-methylpropanoic acid [Compound 98]”: the Ki under setting [4] was at most 90 µM.
Turning to `CC(C)(Oc1cccc(N2CCC[C@@H](C(=O)N(Cc3ccc(-c4ccsc4)cc3)C3CC3)C2)c1)C(=O)N1CCNCC1` [Compound 32, (R)-4-(2-(3-(3-(cyclopropyl(4-(thiophen-3-yl)benzyl)carbamoyl)piperidin-1-yl)phenoxy)-2-methylpropanoyl)piperazin-1-ium chloride], under setting [7], the Ki was under 5 µM.
With `CC(C)(Oc1cccc(N2CCC[C@@H](C(=O)N(Cc3ccc(-c4cn[nH]c4)cc3OCCN)C3CC3)C2)c1)C(=O)N1CCNCC1` [Compound 89, (R)-4-(2-(3-(3-((2-(2-ammonioethoxy)-4-(1H-pyrazol-4-yl)benzyl)(cyclopropyl)carbamoyl)piperidin-1-yl)phenoxy)-2-methylpropanoyl)piperazin-1-ium chlorine], the inhibition constant (Ki) under setting [6] was under 90 µM.
`CC(C)(Oc1cccc(N2CCCC(C(=O)N(Cc3ccc(-c4ccoc4)cc3)C3CC3)C2)c1)C(=O)O` (racemic) [Compound 106, 2-(3-(3-(cyclopropyl(4-(furan-3-yl)benzyl)carbamoyl)piperidin-1-yl)phenoxy)-2-methylpropanoic acid]: the Ki under setting [3] was over 90 µM.
For the compound `CC(C)c1ccc(CNC(=O)[C@@H]2CCCN(c3cccc(OC(C)(C)C(=O)N4CCNCC4)c3)C2)cc1` [Compound 17, (R)-4-(2-(3-(3-((4-isopropylbenzyl)carbamoyl)piperidin-1-yl)phenoxy)-2-methylpropanoyl)piperazin-1-ium chloride], the inhibition constant Ki under setting [1] was at most 10 µM.
Consider `CC(C)(Oc1cccc(N2CCCC(C(=O)N(Cc3ccc(-c4cccs4)cc3)C3CC3)C2)c1)C(=O)O` (racemic) [Compound 103, 2-(3-(3-(cyclopropyl(4-(thiophen-2-yl)benzyl)carbamoyl)piperidin-1-yl)phenoxy)-2-methylpropanoic acid], for which the Ki under setting [3] is at most 30 µM.
As to `CC(C)c1ccc(CN(C(=O)[C@@H]2CCCN(c3cccc(OC(C)(C)C(=O)O)c3)C2)C2CC2)cc1` [Compound 11, (R)-2-(3-(3-(cyclopropyl(4-isopropylbenzyl)carbamoyl)piperidin-1-yl)phenoxy)-2-methylpropanoic acid], the Ki under setting [5] is at most 50 µM.
As for `Cc1n[nH]c(C)c1-c1ccc(CN(C(=O)[C@@H]2CCCN(c3cccc(OC(C)(C)C(=O)N4CCNCC4)c3)C2)C2CC2)cc1` [Compound 40, (R)-4-(2-(3-(3-(cyclopropyl(4-(3,5-dimethyl-1H-pyrazol-4-yl)benzyl)carbamoyl)piperidin-1-yl)phenoxy)-2-methylpropanoyl)piperazin-1-ium chloride], under setting [7], the Ki was under 10 µM.
